Measured values: patent publication US11492325B2, “Compounds as inhibitors of sodium channels” (Human BioMolecular Research Institute, priority 2016, dated 2022)
Values joined by “and” are separate entries in the source; they are usually repeats but may differ in a detail not shown here. Equal values may be shown once. Read-outs that look alike come from different tables or passages of the source.

Assays:
[1] = test system: normal human induced pluripotent stem cell (hiPSC) cardiomyocyte; conditions: for Cessation of Beating / WT-Fold Prolongation / WT-Prolongation Dose: normal hiPSC cardiomyocytes; for WT-Prolong. Dose: 'No AP' wraps to 'No AP Prolong.'; for WT-Fold Prolongation: APD; for WT-Cess. Dose / WT-EC50 (μM)-Prolong.: deuterated vs non-deuterated; for WT-EC50 (μM)-Prolong.: 'No AP' wraps to 'No AP prolongation'
[2] = target: T1, hERG potassium channel (IKr) (Homo sapiens, UniProt Q12809); assay: Automated patch clamp, hERG (IKr) expressed in CHO cells; conditions: for IC50: hERG (IKr) IC50, CHO cells
T1 sequence (Q12809 whole entry): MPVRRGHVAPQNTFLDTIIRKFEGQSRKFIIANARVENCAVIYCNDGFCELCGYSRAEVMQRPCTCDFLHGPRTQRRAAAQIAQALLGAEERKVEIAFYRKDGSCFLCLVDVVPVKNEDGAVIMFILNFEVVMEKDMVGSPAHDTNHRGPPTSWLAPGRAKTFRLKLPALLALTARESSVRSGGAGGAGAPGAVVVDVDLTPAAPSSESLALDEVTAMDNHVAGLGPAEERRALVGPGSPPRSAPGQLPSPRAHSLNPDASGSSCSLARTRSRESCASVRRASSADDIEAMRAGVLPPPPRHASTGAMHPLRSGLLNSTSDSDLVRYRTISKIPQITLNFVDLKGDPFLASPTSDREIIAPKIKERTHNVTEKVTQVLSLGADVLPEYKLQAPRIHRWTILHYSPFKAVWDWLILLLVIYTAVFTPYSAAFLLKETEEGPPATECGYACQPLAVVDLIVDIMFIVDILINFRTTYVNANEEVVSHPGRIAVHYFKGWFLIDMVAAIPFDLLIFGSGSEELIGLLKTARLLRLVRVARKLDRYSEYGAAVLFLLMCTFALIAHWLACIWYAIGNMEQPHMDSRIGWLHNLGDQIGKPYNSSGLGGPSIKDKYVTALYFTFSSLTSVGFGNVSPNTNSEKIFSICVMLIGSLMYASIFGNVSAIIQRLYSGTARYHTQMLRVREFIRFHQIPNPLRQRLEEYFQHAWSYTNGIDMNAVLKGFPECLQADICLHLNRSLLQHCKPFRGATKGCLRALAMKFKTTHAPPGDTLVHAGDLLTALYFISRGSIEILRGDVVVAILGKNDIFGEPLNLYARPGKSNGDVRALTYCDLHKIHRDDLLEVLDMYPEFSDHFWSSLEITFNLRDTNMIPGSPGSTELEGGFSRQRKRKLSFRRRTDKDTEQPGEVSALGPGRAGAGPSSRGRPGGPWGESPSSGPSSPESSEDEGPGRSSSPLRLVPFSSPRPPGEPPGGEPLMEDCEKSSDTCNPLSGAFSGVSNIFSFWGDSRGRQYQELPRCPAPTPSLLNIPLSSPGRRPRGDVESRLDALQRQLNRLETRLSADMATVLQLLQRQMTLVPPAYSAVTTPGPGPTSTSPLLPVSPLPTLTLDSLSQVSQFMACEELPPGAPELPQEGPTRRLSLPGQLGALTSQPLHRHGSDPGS

[3] = Metabolism in human hepatic S9; conditions: for Human S-9, nmol metab./incub.: 0.4 mg protein/incubation, 30 mins, 37° C.
Experimental: (§1) A typical incubation contained rat, mouse, dog or human liver microsomes (0.4-0.5 mg of protein), 100 mM potassium phosphate buffer (pH7.4), 50 μM test compound, an NADPH-generating system consisting of 0.5 mM NADP^+, 0.5 mM glucose-6-phosphate, 1 IU/mL glucose-6-phosphate dehydrogenase, 1 mg/mL diethylenetriaminepentaaceticacid (DETAPAC), and 3 mM MgCl2 in a final incubation volume of 0.25 mL. […] After centrifugation at 3000 rpm for 5 min, the organic fraction was collected, the solvent was removed with a stream of argon and the residue was reconstituted in 125 μL of MeOH and 125 μL H2O, mixed thoroughly, centrifuged at 13,000 rpm for 5 min and analyzed by high performance liquid chromatography. Samples were run on a Hitachi D-7000 HPLC system using a L-7100 analytical pump, L-7400 UV-Visible variable wavelength detector, and L-7600 automatic sample injector. […] Disappearance of the analyte was monitored over time. A plot of the area under the curve for the normalized analyte versus time afforded the half-life values and kapp.
(§2) Microsomes contain CYPs and FMO metabolic enzymes. S9 contains soluble enzymes (i.e., aldehyde oxidase, MAO, etc.).

[4] = target: Na+ channel currents in LQT3 patient-derived cardiomyocytes (Homo sapiens, UniProt Q14524); assay: Whole cell patch clamp of Na+ currents (INaP, INaL) in hIPSC LQT3 patient-derived cardiomyocytes; format: cell-based
Experimental: Patch clamp recordings from hIPSC LQT3 patient-derived cardiomyocytes for Na+ channel currents were recorded in response to computed voltage waveforms that simulated adult ventricular action potentials.
The basis for LQT3 is a mutation in SCN5a that encodes the voltage-gated Na channel responsible for cardiac action potential. The Na current (INa) has peak and late components: the peak component initiates the action potential but as voltage rises, the channel normally inactivates. […] The LQT3 mutation impairs inactivation. The late component is then enlarged, resulting in action potential prolongation. […] Whole cell patch clamp electrophysiology experiments in LQTS3 cardiomyocytes helped determine the functional activity of drug candidates for inhibition of the late sodium current in the cells. Thus, we tested compounds for Peak (INaP) and Late (INaL) components. They were recorded in a “whole-cell” voltage-clamp mode configuration in response to voltage stimulation steps from −80 mV to +40 mV and their IC50 values determined (Table 1).

[5] = test system: cardiomyocytes derived from hiPSCs from a LQTS3 patient; conditions: for LQT-Cess. Dose: deuterated vs non-deuterated
[6] = Metabolic stability in human liver microsomes; format: in vitro ADME; conditions: for half-life at 50 μM: human, liver microsomes, pH 7.4, liver microsomes + NADPH, species (human), read-out: metabolic stability in liver microsomes T1/2
Experimental: as §1

[7] = test system: cardiomyocytes derived from hiPSCs from a LQTS3 patient; assay: cells; conditions: Homo sapiens, Cardiomyocyte; for IC50: read-out: LQT-IC50 (uM)-Shortening
[8] = Solubility (water; 10:30:60% DMSO:PEG400:water vehicle); format: physicochemical
[9] = test system: Male BALBc mice; conditions: for behavioral/toxic effects at 200 mg/kg: mouse, in vivo, ip
Source text: Male BALBc mice (20-22 g) were used throughout these studies. The animals were maintained in a temperature-controlled room with 12-hr periods of light and darkness and had continuous access to water and animal food. […] Groups contained 2-4 animals.

[10] = target: Nav1.5 sodium channel, peak current (INaP) (Homo sapiens, UniProt Q14524, form not given); assay: in vitro
Experimental: (§3) This provided data to investigate the physiology and action of target compounds on individual ion channels. The assay used standardized protocols for culturing and conducting conventional whole cell recording that have been previously developed for both current and voltage-clamp to characterize action potentials using transfected cells. Briefly, the Nav1.5 sodium channel was transfected into HEK293 cells. […] Briefly, cells were plated on 0.1% gelatin-coated 35-mm plastic Petri dishes. […] Data was reported as IC50 values±STD (Table 1).

[11] = target: Nav1.5 sodium channel transfected into HEK293 cells (Homo sapiens, UniProt Q14524); assay: in vitro
Experimental: as §3

[12] = Metabolism in mouse hepatic S9; conditions: 0.4 mg protein/incubation; 30 mins, 37° C.
Experimental: as §1, §2

[13] = target: T2, Human FMO1 (Homo sapiens, UniProt Q01740); assay: Metabolism with human FMO1 (nmol metabolism/incubation); conditions: 15 μg enzyme/incubation; 30 mins, 37° C.
T2 sequence (Q01740 1-532): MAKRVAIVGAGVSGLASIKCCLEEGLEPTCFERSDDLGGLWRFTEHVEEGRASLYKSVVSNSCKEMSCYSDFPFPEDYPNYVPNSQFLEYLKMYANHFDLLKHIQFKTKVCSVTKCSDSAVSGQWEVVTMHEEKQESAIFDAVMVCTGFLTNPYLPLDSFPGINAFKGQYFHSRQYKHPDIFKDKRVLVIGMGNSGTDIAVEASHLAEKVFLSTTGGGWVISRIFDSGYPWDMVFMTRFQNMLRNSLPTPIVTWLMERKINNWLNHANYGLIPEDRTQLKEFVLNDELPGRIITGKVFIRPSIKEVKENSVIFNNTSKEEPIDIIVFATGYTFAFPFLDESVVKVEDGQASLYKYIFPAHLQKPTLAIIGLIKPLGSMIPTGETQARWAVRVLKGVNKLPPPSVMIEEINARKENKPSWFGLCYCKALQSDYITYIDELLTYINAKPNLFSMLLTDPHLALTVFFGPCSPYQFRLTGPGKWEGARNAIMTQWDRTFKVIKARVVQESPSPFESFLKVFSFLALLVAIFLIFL

[14] = target: CYP3A4 (Homo sapiens, UniProt P08684); assay: Metabolism with highly purified CYP3A4 (HPLC); conditions: 3 pmol enzyme/incubation; 30 mins, 37° C.
Chain of CYP3A4 (P08684 whole entry): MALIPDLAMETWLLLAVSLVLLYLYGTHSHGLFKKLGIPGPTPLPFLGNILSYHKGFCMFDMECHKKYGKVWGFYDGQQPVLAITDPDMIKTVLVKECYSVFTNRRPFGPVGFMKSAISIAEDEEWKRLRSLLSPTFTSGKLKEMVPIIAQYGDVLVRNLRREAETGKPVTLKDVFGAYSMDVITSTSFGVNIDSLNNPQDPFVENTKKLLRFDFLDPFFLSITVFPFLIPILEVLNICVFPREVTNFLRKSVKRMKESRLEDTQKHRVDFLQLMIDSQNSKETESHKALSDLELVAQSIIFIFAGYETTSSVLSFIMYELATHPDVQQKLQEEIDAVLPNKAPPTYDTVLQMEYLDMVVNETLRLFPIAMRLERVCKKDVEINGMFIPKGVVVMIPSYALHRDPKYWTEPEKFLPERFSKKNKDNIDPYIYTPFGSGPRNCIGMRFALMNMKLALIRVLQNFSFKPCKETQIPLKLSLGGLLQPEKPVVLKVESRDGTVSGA

[15] = Chemical stability in PBS buffer at pH 7.4 or 3.0, 37° C.; format: physicochemical; conditions: pH 7.4, 100 μM in PBS, 1% Ethanol, read-out: Half-Life @ pH 7.4 and 37° C.
Experimental: A typical incubation contained 100 μM of the test compound prepared in PBS buffer (pH 7.4 or 3.0, 50 mM) with 1% Ethanol. The test compounds were incubated at 37° C. An aliquot from incubations was taken at various times and injected onto an RP-HPLC system as described above. Disappearance of the analyte was monitored over time.

[16] = target: CYP2D6 (Homo sapiens, UniProt P10635); assay: Metabolism with highly purified CYP2D6 (HPLC); conditions: 50 min incubation
Chain of CYP2D6 (P10635 whole entry): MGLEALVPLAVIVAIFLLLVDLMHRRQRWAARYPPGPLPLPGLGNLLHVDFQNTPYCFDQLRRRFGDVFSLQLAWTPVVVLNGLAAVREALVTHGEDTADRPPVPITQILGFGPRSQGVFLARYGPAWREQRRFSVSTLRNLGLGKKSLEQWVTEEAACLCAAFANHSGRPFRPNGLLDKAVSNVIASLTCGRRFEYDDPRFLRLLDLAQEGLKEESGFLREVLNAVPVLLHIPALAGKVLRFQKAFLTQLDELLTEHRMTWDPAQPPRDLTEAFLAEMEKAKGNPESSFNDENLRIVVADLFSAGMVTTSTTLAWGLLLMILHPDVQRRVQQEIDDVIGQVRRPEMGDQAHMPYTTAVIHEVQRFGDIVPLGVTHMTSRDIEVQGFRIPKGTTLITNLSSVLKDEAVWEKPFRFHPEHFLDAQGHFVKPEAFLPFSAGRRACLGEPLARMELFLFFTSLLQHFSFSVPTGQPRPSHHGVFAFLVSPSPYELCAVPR
Experimental: as §1
Accordingly, we examined the metabolism of leads with highly purified CYPs with an HPLC method (Example 8).

[17] = target: T1, hERG potassium channel (IKr)
[18] = test system: normal human induced pluripotent stem cell (hiPSC) cardiomyocyte; assay: cells; conditions: read-out: WT-EC50 (μM) Prolongation
[19] = whole-cell voltage clamp, steps -80 mV to +40 mV, table title says transfected CHO cells, read-out: IC50 for INaL
[20] = whole-cell voltage clamp, steps -80 mV to +40 mV, table title says transfected CHO cells, read-out: IC50 for INaP
[21] = 'No AP' wraps to 'No AP shortening'
[22] = read-out: LQT-EC50 (μM)-Shortening
[23] = ratio peak/late IC50, Example 2

COCCNC(COc1cccc(C)c1C)c1ccccc1 (racemic) [Compound 36, 2-(2,3-dimethylphenoxy)-N-methoxy-ethyl-1-phenylethanamine]
Cessation of Beating [1]: None
IC50 [2]: 27.6 µM
IC50 ([2]; Example 2): 27.6 µM
DKr/NaL ([2]; ratio hERG IC50/late Na IC50): 36.9
DNaP/Kr ([2]; ratio peak Na IC50/hERG IC50): 0.9
DKr/NaL ([2]; ratio, Example 2): 36.9
DNaP/Kr ([2]; ratio, Example 2): 0.93
metabolism in human liver S-9 judged by HPLC [3]: detectably metabolized
IC50 [4, 19]: 0.38 µM
IC50 [4, 20]: 51.8 µM
LQT-Cessation Dose ([5]; LQT3 cardiomyocytes): 200 µM
LQT-Fold Shortening ([5]; LQT3 cardiomyocytes): 1.508
metabolism in human liver microsomes judged by HPLC [6]: metabolized
IC50 [7]: 5.73 µM
solubility (in words) [8]: good solubility
behavioral/toxic effects at 200 mg/kg [9]: slight lethargy
IC50 ([10]; Peak Na+ (INaP) IC50): 25.8 µM
IC50 [11]: 0.747 µM

Cc1cccc(C)c1OCC(N)c1ccccc1 (racemic) [Phenyl Mexiletine]
Human S-9, nmol metab./incub. [3]: 1.2 nmol metab./incub.
Mouse S-9, nmol metab./incub. [12]: 2.5 nmol metab./incub.
Human FMO1, nmol metab./incub. [13]: 0.33 nmol metab./incub.
Human CYP3A4, nmol metab./incub. [14]: 2.3 nmol metab./incub.

Cc1cc(C)cc(OCC(N)c2ccccc2)c1.Cl (racemic) [Compound 70, (rac)-(+)-2-(3,5-dimethylphenoxy)-1-phenylethanamine hydrochloride]
WT-Prolong. Dose [1]: No AP
WT-Fold Prolongation [1]: None
WT-Cess. Dose [1]: 66 µM
WT-EC50 (μM)-Prolong. [1]: No AP
Cessation of Beating [1]: 66 µM
WT-Prolongation Dose [1]: None
IC50 [2]: 6.2 µM
IC50 ([2]; Example 2): 6 µM and 6.2 µM
DKr/NaL ([2]; ratio hERG IC50/late Na IC50): 34.0
DNaP/Kr ([2]; ratio peak Na IC50/hERG IC50): 3.0
DKr/NaL ([2]; ratio, Example 2): 34.0
DNaP/Kr ([2]; ratio, Example 2): 3.0
metabolism in human liver S-9 judged by HPLC [3]: detectably metabolized
Ratio Mex INaL/Lead INaL ([4]; potency relative to Mexiletine): 94.4
IC50 [4, 19]: 0.54 µM
IC50 [4, 20]: 171 µM
LQT-Fold Shortening [5, 21]: 1.279
LQT-Shortening Dose [5, 21]: 7.4 µM
LQT-Cessation Dose ([5]; LQT3 cardiomyocytes): 66 µM
LQT-Fold Shortening ([5]; LQT3 cardiomyocytes): 1.279
LQT-Cess. Dose [5]: 66 µM
metabolism in human liver microsomes judged by HPLC [6]: metabolized
half-life at 50 μM [6]: > 0.0417 days
EC50 [7, 22]: < 0.8 µM
IC50 [7]: 0.0013 µM
solubility (in words) [8]: good solubility
half-life at 100 μM [15]: > 30 days
behavioral/toxic effects at 200 mg/kg [9]: slight lethargy
IC50 [10]: 18.9 µM
IC50 ([10]; Peak Na+ (INaP) IC50): 20.1 µM
DNap/NaL ([11]; ratio peak IC50/late IC50): 103
DNap/NaL ([11]; ratio peak/late IC50, Example 2, hydrochloride): 104 and 100.5
nmols metabolized, CYP2D6 [16]: 4.6 nmols
nmols/μg CYP, CYP2D6 [16]: .345 nmols/μg CYP
pmols product/μg CYP/min, CYP2D6 [16]: 6.92 pmols product/μg CYP/min

Cl.[2H]C(N)(COc1c(C)cccc1C)c1ccccc1 (stereo not shown) [Compound 136]
Human S-9, nmol metab./incub. [3]: 1.4 nmol metab./incub.
Mouse S-9, nmol metab./incub. [12]: 1.4 nmol metab./incub.
Human FMO1, nmol metab./incub. [13]: 0.06 nmol metab./incub.
Human CYP3A4, nmol metab./incub. [14]: 1.5 nmol metab./incub.

COCCNC(COc1ccccc1C(F)(F)F)c1ccccc1.Cl (stereo not shown) [Compound 105]
IC50 ([2]; Example 2): 20.9 µM
solubility (in words) [8]: good solubility
DKr/NaL [17]: 18.3
DNaP/Kr [17]: 2.11
tolerability ([9]; mice, i.p., 30-100 mg/kg, 24 hr): well-tolerated
IC50 ([10]; Peak Na+ (INaP) IC50): 44.3 µM
IC50 [11]: 1.14 µM
DNap/NaL [11, 23]: 38.9

Cl.NC(COc1cc(C(F)(F)F)cc(C(F)(F)F)c1)c1ccccc1 (stereo not shown) [Compound 78, 2-(3,5-bis(trifluoromethyl)phenoxy)-1-phenylethan-1-amine]
WT-Prolong. Dose [1]: No AP
WT-Fold Prolongation [1]: None
WT-Cess. Dose [1]: 133 µM
WT-EC50 (μM)-Prolong. [1]: No AP
Cessation of Beating [1]: 133 µM
WT-Prolongation Dose [1]: None
IC50 ([2]; Example 2): 7.2 µM
DKr/NaL ([2]; ratio, Example 2): 7.0
DNaP/Kr ([2]; ratio, Example 2): 2.77
LQT-Fold Shortening [5, 21]: 1.208
LQT-Shortening Dose [5, 21]: 22 µM
LQT-Cessation Dose ([5]; LQT3 cardiomyocytes): 66 µM
LQT-Fold Shortening ([5]; LQT3 cardiomyocytes): 1.208
LQT-Cess. Dose [5]: 66 µM
half-life at 50 μM [6]: > 0.0417 days
EC50 [7, 22]: 23.1 µM
IC50 [7]: 23.1 µM
solubility (in words) [8]: good solubility
half-life at 100 μM [15]: > 30 days
IC50 ([10]; Peak Na+ (INaP) IC50): 20 µM
DNap/NaL ([11]; ratio peak IC50/late IC50): 19.4
DNap/NaL [11, 23]: 19.4

COCCNC(COc1cccnc1)c1ccccc1 (stereo not shown) [Compound 121]
WT-Cessation Dose (μM) ([1]; WT cardiomyocytes, cessation of beating): No cessation of beating
LQT-Fold Shortening ([5]; LQT-3 cardiomyocytes): 1.144
LQT-3 shortening (in words) ([5]; LQT-3 cells): moderate shortening
EC50 ([7]; read-out: LQT-EC50 (μM) Shortening, LQT-3 cardiomyocytes, AP shortening): 2.58 µM
EC50 [18]: 25.4 µM

Cc1ccccc1OCC(N)c1ccccc1 (stereo not shown) [Compound 25, 1-phenyl-2-(o-tolyloxy)ethanamine]
metabolism in human liver S-9 judged by HPLC [3]: detectably metabolized
IC50 ([4]; LQT3 patient-derived cardiomyocytes, read-out: NaI channel Late (INaL) IC50): 1.74 µM
IC50 [4, 19]: 1.7 µM
IC50 [4, 20]: 102 µM
half-life at 50 μM [6]: > 0.0417 days
solubility (in words) [8]: good solubility
half-life at 100 μM [15]: > 30 days
